According to patent US10597388B2, “Pyridazinone herbicides” (FMC CORPORATION, priority 2014, dated 2020):

Experiments:
Experiment in all cases: Test E greenhouse herbicide test, pre- and postemergence
Type in all cases: in vivo
[1] = system: field bindweed (Convolvulus arvensis)
How it was run: (§1)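 Compounds in a non-phytotoxic solvent mixture with surfactant were applied preemergence to seeds in silt loam soil and postemergence to 2-18 cm plants (1- to 4-leaf stage) in peat-based medium. After 14 to 21 d in a greenhouse, injury was rated visually against untreated controls on a 0 (no effect) to 100 (complete control) scale.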

[2] = system: momingglory (Ipomoea coccinea); settings: Preemergence
How it was run: as §1

[3] = system: foxtail, green (green foxtail, Setaria viridis); settings: Preemergence
How it was run: as §1

[4] = system: crabgrass, large (large crabgrass, Digitaria sanguinalis); settings: Preemergence
How it was run: as §1

[5] = system: dayflower (Virginia (VA) dayflower, Commelina virginica)
How it was run: as §1

[6] = system: barnyardgrass (Echinochloa crus-galli)
How it was run: as §1

[7] = system: waterhemp (common waterhemp, Amaranthus rudis)
How it was run: as §1

[8] = system: Italian ryegrass (Lolium multiflorum)
How it was run: as §1

[9] = system: nutsedge, yellow (yellow nutsedge, Cyperus esculentus); settings: Preemergence
How it was run: as §1

[10] = system: horseweed (Conyza canadensis)
How it was run: as §1

[11] = 62 g ai/ha, Preemergence, scale 0 to 100 (0 no effect, 100 complete control)
[12] = Preemergence, 31 g ai/ha, scale 0 to 100, 0 no effect, 100 complete control
[13] = Preemergence, 125 g ai/ha, visual, scale 0 no effect to 100 complete control
[14] = Preemergence, 250 g ai/ha, visual, scale 0 no effect to 100 complete control
[15] = 62 g ai/ha, scale 0 to 100 (0 no effect, 100 complete control)
[16] = 125 g ai/ha, scale 0 to 100 (0 no effect, 100 complete control)
[17] = 31 g ai/ha, scale 0 to 100, 0 no effect, 100 complete control
[18] = 250 g ai/ha, visual, scale 0 no effect to 100 complete control
[19] = 125 g ai/ha, visual, scale 0 no effect to 100 complete control
[20] = 125 g ai/ha, Preemergence, scale 0 to 100 (0 no effect, 100 complete control)
[21] = 62 g ai/ha, Postemergence, scale 0 to 100 (0 no effect, 100 complete control)
[22] = 125 g ai/ha, Postemergence, scale 0 to 100 (0 no effect, 100 complete control)
[23] = 250 g ai/ha, Postemergence, scale 0 to 100 (0 no effect, 100 complete control)
[24] = Postemergence, 31 g ai/ha, visual, scale 0 no effect to 100 complete control

CCOC(=O)Oc1c(C)nn(C)c(=O)c1-c1c(CC)ccc2ccccc12 [Compound 37]
Plant response rating, Field Bindweed [1, 11]: 90
Plant response rating, Field Bindweed [1, 12]: 75
Plant response rating, Field Bindweed [1, 13]: 85
Plant response rating, Field Bindweed [1, 14]: 100
Plant response rating, Morningglory [2, 15]: 40
Plant response rating, Morningglory [2, 16]: 50
Plant response rating, Morningglory [2, 17]: 15
Plant response rating, Morningglory [2, 18]: 65
Plant response rating, Foxtail, Green [3, 15]: 60
Plant response rating, Foxtail, Green [3, 17]: 0
Plant response rating, Foxtail, Green [3, 19]: 65
Plant response rating, Foxtail, Green [3, 18]: 80
Plant response rating, Crabgrass, Large [4, 15]: 75
Plant response rating, Crabgrass, Large [4, 17]: 50
Plant response rating, Crabgrass, Large [4, 19]: 80
Plant response rating, Crabgrass, Large [4, 18]: 90
Plant response rating, Dayflower, VA [5, 11]: 5
Plant response rating, Dayflower, VA [5, 12]: 0
Plant response rating, Dayflower, VA [5, 13]: 40
Plant response rating, Dayflower, VA [5, 14]: 60
Plant response rating, Barnyardgrass [6, 11]: 0
Plant response rating, Barnyardgrass [6, 12]: 0
Plant response rating, Barnyardgrass [6, 13]: 0
Plant response rating, Barnyardgrass [6, 14]: 30
Plant response rating, Waterhemp [7, 11]: 75
Plant response rating, Waterhemp [7, 20]: 98
Plant response rating, Waterhemp [7, 12]: 0
Plant response rating, Waterhemp [7, 14]: 100
Plant response rating, Ryegrass, Italian [8, 11]: 95
Plant response rating, Ryegrass, Italian [8, 20]: 100
Plant response rating, Ryegrass, Italian [8, 12]: 85
Plant response rating, Ryegrass, Italian [8, 14]: 100
Plant response rating, Nutsedge, Yellow [9, 15]: 0
Plant response rating, Nutsedge, Yellow [9, 16]: 65
Plant response rating, Nutsedge, Yellow [9, 17]: 0
Plant response rating, Nutsedge, Yellow [9, 18]: 70
Plant response rating, Horseweed [10, 11]: 100
Plant response rating, Horseweed [10, 12]: 100
Plant response rating, Horseweed [10, 13]: 100
Plant response rating, Horseweed [10, 14]: 100

Cc1ccc2ccccc2c1-c1c(O)c(C)nn(C)c1=O [Compound 59]
Plant response rating, Field Bindweed [1, 11]: 75
Plant response rating, Field Bindweed [1, 12]: 65
Plant response rating, Field Bindweed [1, 13]: 95
Plant response rating, Field Bindweed [1, 14]: 95
Plant response rating, Morningglory [2, 15]: 95
Plant response rating, Morningglory [2, 16]: 98
Plant response rating, Morningglory [2, 17]: 75
Plant response rating, Morningglory [2, 18]: 100
Plant response rating, Foxtail, Green [3, 15]: 90
Plant response rating, Foxtail, Green [3, 17]: 65
Plant response rating, Foxtail, Green [3, 19]: 95
Plant response rating, Foxtail, Green [3, 18]: 100
Plant response rating, Crabgrass, Large [4, 15]: 50
Plant response rating, Crabgrass, Large [4, 17]: 0
Plant response rating, Crabgrass, Large [4, 19]: 80
Plant response rating, Crabgrass, Large [4, 18]: 95
Plant response rating, Dayflower, VA [5, 11]: 40
Plant response rating, Dayflower, VA [5, 12]: 10
Plant response rating, Dayflower, VA [5, 13]: 80
Plant response rating, Dayflower, VA [5, 14]: 80
Plant response rating, Barnyardgrass [6, 11]: 25
Plant response rating, Barnyardgrass [6, 12]: 0
Plant response rating, Barnyardgrass [6, 13]: 60
Plant response rating, Barnyardgrass [6, 14]: 90
Plant response rating, Waterhemp [7, 11]: 100
Plant response rating, Waterhemp [7, 20]: 100
Plant response rating, Waterhemp [7, 12]: 75
Plant response rating, Waterhemp [7, 14]: 100
Plant response rating, Ryegrass, Italian [8, 11]: 100
Plant response rating, Ryegrass, Italian [8, 20]: 100
Plant response rating, Ryegrass, Italian [8, 12]: 100
Plant response rating, Ryegrass, Italian [8, 14]: 100
Plant response rating, Nutsedge, Yellow [9, 15]: 35
Plant response rating, Nutsedge, Yellow [9, 16]: 75
Plant response rating, Nutsedge, Yellow [9, 17]: 50
Plant response rating, Nutsedge, Yellow [9, 18]: 70
Plant response rating, Horseweed [10, 11]: 100
Plant response rating, Horseweed [10, 12]: 100
Plant response rating, Horseweed [10, 13]: 100
Plant response rating, Horseweed [10, 14]: 100

COC(=O)Oc1c(C)nn(C)c(=O)c1-c1c(C)sc2c(C)cc(C)cc12 [Compound 81]
Plant response rating, Field Bindweed [1, 21]: 65
Plant response rating, Field Bindweed [1, 11]: 0
Plant response rating, Field Bindweed [1, 22]: 75
Plant response rating, Field Bindweed [1, 20]: 75
Plant response rating, Field Bindweed [1, 23]: 85
Plant response rating, Field Bindweed [1, 24]: 60
Plant response rating, Field Bindweed [1, 12]: 0
Plant response rating, Field Bindweed [1, 14]: 100
Plant response rating, Morningglory [2, 15]: 85
Plant response rating, Morningglory [2, 16]: 100
Plant response rating, Morningglory [2, 17]: 60
Plant response rating, Morningglory [2, 18]: 100
Plant response rating, Foxtail, Green [3, 15]: 70
Plant response rating, Foxtail, Green [3, 16]: 95
Plant response rating, Foxtail, Green [3, 17]: 20
Plant response rating, Foxtail, Green [3, 18]: 100
Plant response rating, Crabgrass, Large [4, 15]: 75
Plant response rating, Crabgrass, Large [4, 16]: 90
Plant response rating, Crabgrass, Large [4, 17]: 50
Plant response rating, Crabgrass, Large [4, 18]: 98
Plant response rating, Dayflower, VA [5, 21]: 70
Plant response rating, Dayflower, VA [5, 11]: 15
Plant response rating, Dayflower, VA [5, 22]: 80
Plant response rating, Dayflower, VA [5, 20]: 35
Plant response rating, Dayflower, VA [5, 23]: 80
Plant response rating, Dayflower, VA [5, 24]: 60
Plant response rating, Dayflower, VA [5, 12]: 10
Plant response rating, Dayflower, VA [5, 14]: 65
Plant response rating, Barnyardgrass [6, 21]: 20
Plant response rating, Barnyardgrass [6, 11]: 25
Plant response rating, Barnyardgrass [6, 22]: 30
Plant response rating, Barnyardgrass [6, 20]: 35
Plant response rating, Barnyardgrass [6, 23]: 50
Plant response rating, Barnyardgrass [6, 24]: 20
Plant response rating, Barnyardgrass [6, 12]: 0
Plant response rating, Barnyardgrass [6, 14]: 75
Plant response rating, Waterhemp [7, 11]: 90
Plant response rating, Waterhemp [7, 22]: 60
Plant response rating, Waterhemp [7, 20]: 90
Plant response rating, Waterhemp [7, 23]: 75
Plant response rating, Waterhemp [7, 24]: 50
Plant response rating, Waterhemp [7, 12]: 60
Plant response rating, Waterhemp [7, 14]: 90
Plant response rating, Ryegrass, Italian [8, 21]: 70
Plant response rating, Ryegrass, Italian [8, 11]: 95
Plant response rating, Ryegrass, Italian [8, 22]: 75
Plant response rating, Ryegrass, Italian [8, 20]: 90
Plant response rating, Ryegrass, Italian [8, 23]: 80
Plant response rating, Ryegrass, Italian [8, 24]: 50
Plant response rating, Ryegrass, Italian [8, 12]: 75
Plant response rating, Ryegrass, Italian [8, 14]: 100
Plant response rating, Nutsedge, Yellow [9, 15]: 30
Plant response rating, Nutsedge, Yellow [9, 16]: 80
Plant response rating, Nutsedge, Yellow [9, 17]: 35
Plant response rating, Nutsedge, Yellow [9, 18]: 90
Plant response rating, Horseweed [10, 21]: 75
Plant response rating, Horseweed [10, 11]: 100
Plant response rating, Horseweed [10, 22]: 65
Plant response rating, Horseweed [10, 20]: 100
Plant response rating, Horseweed [10, 23]: 85
Plant response rating, Horseweed [10, 24]: 50
Plant response rating, Horseweed [10, 12]: 90
Plant response rating, Horseweed [10, 14]: 100
